Experimental data taken from a polymer gas permeability compilation.

Which CH4 permeability does the source give for `*C(=C(*)c1ccc(-c2ccccc2)cc1)c1ccccc1` (repeat unit) here?
Its CH4 permeability is 170 Barrer.

And the CO2 permeability?
Its CO2 permeability is 1300 Barrer.

What about the H2 permeability of the same compound?
The H2 permeability was 440 Barrer.

And the N2 permeability?
Its N2 permeability is 65 Barrer.

And the O2 permeability?
Its O2 permeability is 180 Barrer.

Which results are given for `*c1ccc(C(C)(C)c2ccc(N3C(=O)c4ccc(Oc5ccc(Oc6ccc7c(c6)C(=O)N(*)C7=O)cc5)cc4C3=O)cc2)cc1` (repeat unit)?
CH4 permeability: 0.0692 Barrer; CO2 permeability: 2.65 Barrer; H2 permeability: 9.33 Barrer; N2 permeability: 0.104 Barrer; O2 permeability: 0.586 Barrer

For `*CC1CC(C*)C2C1C([Si](O[Si](C)(C)C)(O[Si](C)(C)C)O[Si](C)(C)C)C2[Si](O[Si](C)(C)C)(O[Si](C)(C)C)O[Si](C)(C)C` (repeat unit), which CH4 permeability is on record?
The CH4 permeability was 215 Barrer.

And the CO2 permeability?
The CO2 permeability was 840 Barrer.

What about the H2 permeability of the same compound?
The H2 permeability was 460 Barrer.

What about the N2 permeability of the same compound?
Its N2 permeability is 75 Barrer.

And the O2 permeability?
Its O2 permeability is 220 Barrer.

For `*C(=C(*)c1ccc2c(c1)C(C)(C)CC2(C)C)c1ccc(F)c(F)c1` (repeat unit), which CH4 permeability is on record?
Its CH4 permeability is 35000 Barrer.

What about the CO2 permeability of the same compound?
Its CO2 permeability is 44200 Barrer.

And the H2 permeability?
The H2 permeability was 36800 Barrer.

What about the N2 permeability of the same compound?
Its N2 permeability is 16600 Barrer.

And the O2 permeability?
The O2 permeability was 18700 Barrer.

Which CH4 permeability does the source give for `*CC(*)c1ccc(C)cc1` (repeat unit) here?
The CH4 permeability was 2.2 Barrer.

And the CO2 permeability?
The CO2 permeability was 29.8 Barrer.

And the N2 permeability?
The N2 permeability was 1.5 Barrer.

And the O2 permeability?
The O2 permeability was 7.2 Barrer.

Which CH4 permeability does the source give for `*c1cccc(Oc2cccc(N3C(=O)c4ccc(C(c5ccc6c(c5)C(=O)N(*)C6=O)(C(F)(F)F)C(F)(F)F)cc4C3=O)c2)c1` (repeat unit) here?
Its CH4 permeability is 0.032 Barrer.

What about the CO2 permeability of the same compound?
The CO2 permeability was 2.1 Barrer.

And the H2 permeability?
The H2 permeability was 14 Barrer.

What about the N2 permeability of the same compound?
The N2 permeability was 0.1 Barrer.

What about the O2 permeability of the same compound?
Its O2 permeability is 0.68 Barrer.

With `*Oc1ccc(C(c2ccc(OC(=O)c3ccc(C(*)=O)cc3)cc2)(C(F)(F)F)C(F)(F)F)cc1` (repeat unit) as the compound, how does the CH4 permeability read?
The CH4 permeability was 2.74 Barrer.

What about the CO2 permeability of the same compound?
The CO2 permeability was 47.1 Barrer.

And the N2 permeability?
Its N2 permeability is 2.95 Barrer.

And the O2 permeability?
Its O2 permeability is 11.8 Barrer.

For `*Oc1c(C)cc(C(C)(C)c2cc(C)c(OC(*)=O)c(C)c2)cc1C` (repeat unit), which CH4 permeability is on record?
The CH4 permeability was 0.89 Barrer.

What about the CO2 permeability of the same compound?
Its CO2 permeability is 18.6 Barrer.

What about the H2 permeability of the same compound?
The H2 permeability was 32 Barrer.

What about the N2 permeability of the same compound?
Its N2 permeability is 1.1 Barrer.

And the O2 permeability?
The O2 permeability was 5.6 Barrer.

What does the source list for `*c1ccc(Cc2ccc(N3C(=O)c4ccc(C(=O)c5ccc6c(c5)C(=O)N(*)C6=O)cc4C3=O)cc2)cc1` (repeat unit)?
H2 permeability: 4.03 Barrer; N2 permeability: 0.02 Barrer; O2 permeability: 0.211 Barrer

For `*CC(*)(C)C(=O)OCCOCC` (repeat unit), which CH4 permeability is on record?
The CH4 permeability was 1.23 Barrer.

And the CO2 permeability?
Its CO2 permeability is 8.56 Barrer.

And the N2 permeability?
The N2 permeability was 0.385 Barrer.

What about the O2 permeability of the same compound?
Its O2 permeability is 1.45 Barrer.

Which results are given for `*Oc1c(C)cc(C(C)(C)c2cc(C)c(OC(=O)c3cc(C(*)=O)cc(C(C)(C)C)c3)c(C)c2)cc1C` (repeat unit)?
CH4 permeability: 2.72 Barrer; CO2 permeability: 45.3 Barrer; H2 permeability: 96 Barrer; N2 permeability: 2.6 Barrer; O2 permeability: 12.7 Barrer

For `*c1c(C)cc(-c2cc(C)c(N3C(=O)c4cc5c(cc4C3=O)S(=O)(=O)c3cc4c(cc3S5(=O)=O)C(=O)N(*)C4=O)c(C)c2)cc1C` (repeat unit), which CH4 permeability is on record?
The CH4 permeability was 1.21 Barrer.

What about the CO2 permeability of the same compound?
The CO2 permeability was 39 Barrer.

And the H2 permeability?
Its H2 permeability is 58 Barrer.

And the N2 permeability?
The N2 permeability was 1.33 Barrer.

What about the O2 permeability of the same compound?
Its O2 permeability is 6.6 Barrer.

With `*c1c(C)cc2c(c1C)C1c3ccccc3C2c2cc(C)c(N3C(=O)c4ccc(C(c5ccc6c(c5)C(=O)N(*)C6=O)(C(F)(F)F)C(F)(F)F)cc4C3=O)c(C)c21` (repeat unit) as the compound, how does the CH4 permeability read?
The CH4 permeability was 121 Barrer.

What about the CO2 permeability of the same compound?
The CO2 permeability was 1730 Barrer.

And the H2 permeability?
The H2 permeability was 1400 Barrer.

And the N2 permeability?
The N2 permeability was 113 Barrer.

What about the O2 permeability of the same compound?
The O2 permeability was 374 Barrer.

For `*c1ccc(Oc2ccc(S(=O)(=O)c3ccc(Oc4ccc(N5C(=O)c6ccc(-c7ccc8c(c7)C(=O)N(*)C8=O)cc6C5=O)cc4)cc3)cc2)cc1` (repeat unit), which CH4 permeability is on record?
The CH4 permeability was 0.0397 Barrer.

And the CO2 permeability?
Its CO2 permeability is 1.85 Barrer.

What about the N2 permeability of the same compound?
Its N2 permeability is 0.0544 Barrer.

What about the O2 permeability of the same compound?
Its O2 permeability is 0.368 Barrer.

With `*Oc1c(C)cc(*)c(C(=O)c2ccccc2)c1C` (repeat unit) as the compound, how does the CH4 permeability read?
Its CH4 permeability is 0.95 Barrer.

And the CO2 permeability?
The CO2 permeability was 14.3 Barrer.

What about the N2 permeability of the same compound?
The N2 permeability was 1.59 Barrer.

What about the O2 permeability of the same compound?
The O2 permeability was 6 Barrer.

Which CH4 permeability does the source give for `*C=C(*)c1cccc(O[Si](C)(C)C(C)(C)C)c1` (repeat unit) here?
The CH4 permeability was 12 Barrer.

And the CO2 permeability?
Its CO2 permeability is 58 Barrer.

What about the H2 permeability of the same compound?
The H2 permeability was 64 Barrer.

What about the N2 permeability of the same compound?
Its N2 permeability is 7.6 Barrer.

And the O2 permeability?
Its O2 permeability is 17 Barrer.

Which CH4 permeability does the source give for `*Oc1ccc(C2(c3ccc(OC(=O)c4cccc(C(*)=O)c4)cc3)OC(=O)c3ccccc32)cc1` (repeat unit) here?
Its CH4 permeability is 0.251 Barrer.

What about the CO2 permeability of the same compound?
The CO2 permeability was 7.87 Barrer.

And the H2 permeability?
Its H2 permeability is 17.2 Barrer.

And the N2 permeability?
Its N2 permeability is 0.303 Barrer.

What about the O2 permeability of the same compound?
Its O2 permeability is 1.78 Barrer.

Which results are given for `*c1ccc(Oc2ccc(N3C(=O)c4ccc(C(=O)c5ccc6c(c5)C(=O)N(*)C6=O)cc4C3=O)cc2)cc1` (repeat unit)?
CH4 permeability: 0.0109 Barrer; CO2 permeability: 0.625 Barrer; H2 permeability: 4.19 Barrer; N2 permeability: 0.0178 Barrer; O2 permeability: 0.18 Barrer

With `*Oc1c(-c2ccccc2)cc(*)cc1-c1ccccc1` (repeat unit) as the compound, how does the CH4 permeability read?
The CH4 permeability was 2.7 Barrer.

And the CO2 permeability?
The CO2 permeability was 39.9 Barrer.

And the H2 permeability?
The H2 permeability was 28 Barrer.

And the N2 permeability?
Its N2 permeability is 1.5 Barrer.

And the O2 permeability?
The O2 permeability was 7.7 Barrer.

What does the source list for `*Oc1ccc(C(C)(C)c2ccc(C(C)(C)c3ccc(Oc4ccc(S(=O)(=O)c5ccc(*)cc5)cc4)cc3)cc2)cc1` (repeat unit)?
CH4 permeability: 0.34 Barrer; CO2 permeability: 6.8 Barrer; H2 permeability: 36 Barrer; N2 permeability: 0.321 Barrer; O2 permeability: 1.8 Barrer
